This is an account of results in patent US6344454B1, “Nonsteroidal gestagens” (Schering Aktiengesellschaft, priority 1997, dated 2002).

The target of one series is T1, gestagen receptor (Oryctolagus cuniculus, UniProt P06186).
T1 construct: using cytosol from rabbit uterus homogenate; from tissue; host or cells: rabbit uterus cytosol
T1 sequence (P06186 1-930): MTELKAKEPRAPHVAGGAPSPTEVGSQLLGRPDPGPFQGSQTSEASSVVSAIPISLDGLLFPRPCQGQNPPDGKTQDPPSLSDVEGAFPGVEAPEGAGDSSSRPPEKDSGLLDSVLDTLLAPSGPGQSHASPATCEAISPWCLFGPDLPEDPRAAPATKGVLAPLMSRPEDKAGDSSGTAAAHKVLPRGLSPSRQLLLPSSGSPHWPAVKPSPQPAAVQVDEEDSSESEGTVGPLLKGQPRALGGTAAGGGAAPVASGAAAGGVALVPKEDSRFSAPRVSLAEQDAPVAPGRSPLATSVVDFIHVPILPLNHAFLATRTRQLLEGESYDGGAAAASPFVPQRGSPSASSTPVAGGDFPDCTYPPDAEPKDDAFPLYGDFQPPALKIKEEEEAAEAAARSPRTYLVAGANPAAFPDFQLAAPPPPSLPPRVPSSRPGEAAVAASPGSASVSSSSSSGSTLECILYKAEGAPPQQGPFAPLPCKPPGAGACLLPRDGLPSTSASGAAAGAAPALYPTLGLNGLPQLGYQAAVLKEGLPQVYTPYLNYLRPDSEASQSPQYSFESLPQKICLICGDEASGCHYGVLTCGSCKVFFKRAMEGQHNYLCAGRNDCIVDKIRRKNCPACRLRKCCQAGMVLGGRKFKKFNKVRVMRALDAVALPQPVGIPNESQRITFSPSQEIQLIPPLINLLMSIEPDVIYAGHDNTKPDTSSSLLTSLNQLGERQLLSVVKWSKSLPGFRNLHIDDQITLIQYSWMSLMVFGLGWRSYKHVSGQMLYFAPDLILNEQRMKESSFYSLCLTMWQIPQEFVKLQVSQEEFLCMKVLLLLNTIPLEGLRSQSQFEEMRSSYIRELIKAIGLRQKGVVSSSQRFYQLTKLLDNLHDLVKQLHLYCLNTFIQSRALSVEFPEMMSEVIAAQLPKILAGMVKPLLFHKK
Briefly: gestagen receptor bonding test (cytosol from rabbit uterus homogenate, 3H-progesterone as reference substance). The format is binding. From the text: In the gestagen receptor bonding test on the gestagenic action using cytosol from rabbit uterus homogenate and from ^3H-progesterone as a reference substance, the new compounds show a strong to very strong affinity to the gestagen receptor (see Table 1).

In general, melting point refers to the temperature, or range, at which the solid turns liquid. Regarding `CC(C)(CC(O)(C(=O)Nc1ccc2c(c1)COC2=O)C(F)(F)F)c1cccs1` (single isomer, unassigned; (+)) [Example 103 (+)-2-thienyl, (+)-5-[2-hydroxy-4-methyl-4-(2-thienyl)-2-trifluoromethyl-valeroylamino]-phthalide], the melting point came out at 166 °C.
`CC(C)Oc1ccc(F)cc1C(C)(C)CC(O)(C(=O)Nc1ccc2c(c1)COC2=O)C(F)(F)F` (racemic) [Example 155] yielded a melting point of 153 to 154 °C.
Same read-out and setting: next, `Cc1noc(=O)c2ccc(NC(=O)C(O)(CC(C)(C)c3ccccc3)C(F)(F)F)cc12` (stereo not shown) [Example 42, 6-(2-Hydroxy-4-methyl-4-phenyl-2-trifluoromethyl-valeroyl-amino)-4-methyl-2,3-benzoxazin-1-one]: 172 to 173 °C.
Take `CC(CC(O)(C(=O)Nc1ccc([N+](=O)[O-])c(C(F)(F)F)c1)C(F)(F)F)c1ccccc1` (stereo not shown) [(*) (Melting point 161° C.), reference compound]: on gestagen receptor, the “Competition Factor (Reference Substance 3H-Progesterone)” value (from here on “Competition Factor”) is 2.0.
In turn, `Cc1noc(=O)c2ccc(NC(=O)C(O)(CC(C)(C)c3ccccc3)C(F)(F)F)cc12` (stereo not shown) [Example 106] returned a melting point of 123 °C. Besides, the “Competition Factor” value at gestagen receptor is 0.55.
For the compound `COc1cccc(C(C)(C)CC(O)(C(=O)Nc2ccc3c(c2)COC3=O)C(F)(F)F)c1` (stereo not shown) [Example 4, 5-[2-Hydroxy-4-(3-methoxyphenyl)-4-methyl-2-trifluoromethyl-valeroylamino]-phthalide], the melting point was in the range of 129 to 130 °C.
`CC(CC(O)(C(=O)Nc1ccc([N+](=O)[O-])c(C(F)(F)F)c1)C(F)(F)F)c1ccccc1` (stereo not shown) [(*) (Melting point 141-142° C.), reference compound]: the “Competition Factor” value at gestagen receptor was found to be 17.
`CC(C)(CC(O)(CNc1ccc2c(c1)COC2=O)C(F)(F)F)c1ccccc1` (racemic) [Example 65] had a melting point of 154 °C. In addition, the “Competition Factor” value on gestagen receptor is given as 0.17.
